Experimental data reported in patent US8563520B2, “Treatment of ocular disease with inhibitors of alpha2 macroglobulin protein” (McGill University, priority 2005, dated 2013).
“Also recorded” adds a separate entry of the source. Like-named read-outs stand apart in the source and are kept apart here.

Experiments:
α2 macroglobulin mRNA = details: betaxolol treatment; still significantly increased over normal IOP
Excerpt: Retinas were dissected from eyes treated as indicated (n=3) and mRNAs were purified and studied by Northern blotting with labeled α2 macroclobulin or actin (control) probes.

[1] = test system: retinal ganglion cells (RGCs); assay: RGC loss in high IOP (cauterization) glaucoma model, retrograde RGC labeling and counting; type: in vivo, rat; details: for RGC loss (% at day 42 vs normal): 14 days high, 28 normal IOP
Protocol: Episcleral cauterization of rat eyes was performed under anesthesia.
RGCs were labeled with 3% DII (1,1-dioctadecyl-3,3,3,3-tetramethylindocarbocyanine perchlorate) or with 3% fluorogold. Briefly, Wistar rats were anesthetized and their heads were mounted in a stereotactic apparatus.
7 days after dye injection, the vasculature of the rats were perfused-fixed (transcardiac perfusion in phosphate-buffer (PB), followed by 4% PFA in PB) and the eyes were enucleated. After post-fixing for 1 hour cuts were made through the sclera to form a Maltese cross pattern and retinas detached from the eyecup at the optic nerve head. The retinas were flat-mounted on glass slides (vitreous side up) air-dried and cover-slipped with mounting medium (Molecular Probes). The retinas were observed under fluorescence microscopy (Zeiss). […] RGCs were recognized in flat mounted retinas by the presence of retrogradely transported dye and by morphology. RGCs in all 4 quadrants (16 images per retina) were averaged and presented as […] of area counted.
A puncture was made on the eye wall with a 30 G needle to allow the entrance of a cannula in the […]. A glass cannula (10 μm thickness), prepared with an upright microelectrode puller (Narishige) was connected through plastic tubing to a Hamilton syringe to dispense solutions of anti-α2 macroglobulin rabbit antibody (Calbiochem), control PBS, or control rabbit antibody (Sigma). Injections were done at day 14 and 21 post-surgery (in sham-operated control eyes with normal IOP, and cauterized eyes with high IOP). The intraocular injections were in 2 μl volumes containing a total of 2 μg antibody. This amount was selected because in quantitative western blots of whole rat retina there was an estimated total of ˜1 μg of α2 macroglobulin in glaucomatous eyes (data not shown). Ocular pressure was not affected by intraocular injections, the high IOP eyes remained high IOP and the normal IOP eyes remained normal IOP (data not shown).
A second paradigm was used to confirm the role of α2 macroglobulin in RGC death. Neutralizing antibodies to α2 macroglobulin were injected intraocularly in glaucomatous eyes with high IOP to determine whether RGC death could be prevented. The experimental model was to induce high IOP for 14 days to trigger α2 macroglobulin over-expression and RGC damage, before the initiation of α2 macroglobulin neutralizing therapy. Neutralization was used as single therapy, or was combined with daily betaxolol treatment to better reflect the clinical setting in which glaucoma patients would be simultaneously treated with pressure-lowering drugs. Neutralizing antibodies were given at days 14 and 21 after cauterization, and surviving RGCs, identified by retrograde labeling, were counted at day 42 post-surgery. […]

retinal mRNA = details: day 28
Protocol: RNA preparation. Total RNA was isolated from retinal tissue using TRIZOL® (Life Technologies). Three retinas belonging to the same experimental group were pooled for the gene microarray experiment. RNA was then further purified using the RNAEASY® (QIAGEN®). The integrity of the RNA samples was assessed by running aliquots on RNA 6000 Nano LabChip (Agilent) using the 2100 bioanalyzer (Agilent).
Probe synthesis, hybridization and scanning were done according to Affymetrix protocol, as a service at the McGill University and Genome Quebec Innovation Centre. For the experiments shown, Rat U34 Genome Arrays (8,700 genes, Affymetrix) were used. Briefly, RNA samples were first converted to double stranded cDNA (T7-(dT)24 primer (Genset)). Then the cDNAs were purified and used to generate the biotinylated cRNA probes (Bioarray High Yield RNA transcript labeling kit (Enzo diagnostics)). An aliquot of the purified cRNA was analyzed on RNA 6000 Nano LabChip (Agilent) to verify the integrity and size distribution. Immediately after hybridization the chip was placed in the Affymetrix GeneChip Fluidics Station 400 (Affymetrix). In total, 10 low-stringency washes (63 SSPE, 0.01% Tween-20, 0.005% Antifoam) and 4 high-stringency washes (100 mM MES, 0.1 M NaCl, 0.01% Tween-20, 50 C) were performed (all reagents from Sigma). The array was then incubated with SAPE® (streptavidin/phycoerythrin stain, Molecular Probes), followed by 10 low stringency washes. The array was incubated with biotinylated anti-streptavidin antibody (Vector Laboratories) and washed again with 15 low stringency washes. Specifically bound probe was detected by placing the array in the Agilent GeneArray scanner 2500 (Affymetrix). The scanned images were analyzed using the Microarray Analysis Suite version 5.0 (Affymetrix). Statistical analyses were done with the help of the Kensington Discovery Edition version 1.8 (Inforsense).
Retinas were carefully dissected out to insure that only retinal mRNAs were prepared for gene microarray studies. Samples were obtained from sham operated eyes (normal IOP control, Group 1), eyes at 28 days high IOP (test, Group 2), and eyes 28 days after cauterization plus daily betaxolol treatment from day 3 onwards (Group 3). […] Samples from each of these groups (n=4 each group) were studied by gene microarrays (see FIG. 2 flowchart). A cutoff of 2.5-fold was used to afford significance (p<0.05).

rat eyes = details: for IOP of normal eyes: daily topical betaxolol 0.5% eye drops; for IOP of cauterized (high IOP) eyes: daily topical betaxolol 0.5% eye drops from day 3 post-cauterization
Protocol: Episcleral cauterization of rat eyes was performed under anesthesia. After a conjunctival incision, extra-ocular muscles were isolated and the major limbal draining veins were identified based on location, relative immobility, larger caliber and branching pattern. Cauterization of three episcleral vessels in the right eye was done with a 30″ cautery tip. The left eye in each animal was used as normal IOP control after sham-surgery (conjunctival incisions with no cauterization).
IOP was gauged using a Tonopen XL tonometer under light anesthesia (intramuscular injection of ketamine, […]; xylazine, 0.32 mg/kg; and acepromazine, 0.4 mg/kg).
A selective β-blocker (betaxolol 0.5%, Alcon) was applied daily as eye drops.

With `CC(C)NCC(O)COc1ccc(CCOCC2CC2)cc1` (stereo not drawn) [betaxolol] the “increase of retinal α2 macroglobulin mRNA at day 28 of high IOP” value (α2 macroglobulin mRNA) was “attenuated slightly”, the “RGC loss (% at day 42 vs normal)” value ([1]; daily betaxolol days 14-42, no Ab injection) was 19±1% and the “RGC loss (% at day 42 vs normal)” value ([1]; daily betaxolol days 14-42, no Ab injection, listed as Betaxolol) was 19 ± 1%. For the same molecule, the “RGC loss (% at day 42 vs normal)” value ([1]; daily betaxolol days 14-42 plus control serum days 14 and 21) was 21 ± 5%, the “rate of RGC loss” value ([1]; daily betaxolol, IOP normalized from day 7 onwards) was “reduces the rate of RGC loss, but does not prevent it; also recorded: reduced the average rate of RGC loss, but did not prevent it” and the “Relative Change versus non-cauterized eyes, cauterized + betaxolol B” value (retinal mRNA; gene ATPase alpha-1 subunit (M74494)) was 1.5. The “Relative Change versus non-cauterized eyes, cauterized + betaxolol B” value (retinal mRNA; gene Amphiphysin 1 (Y13381)) was −1.1, the “Relative Change versus non-cauterized eyes, cauterized + betaxolol B” value (retinal mRNA; gene Amyloid precursor-like protein 2 (X77934)) was 1.1 and the “Relative Change versus non-cauterized eyes, cauterized + betaxolol B” value (retinal mRNA; gene Asparagine synthase (U07201)) was −1.1. For the same molecule, the “Relative Change versus non-cauterized eyes, cauterized + betaxolol B” value (retinal mRNA; gene B-2 arylamine N-acetyltransferase (U01347)) was 1.5, the “Relative Change versus non-cauterized eyes, cauterized + betaxolol B” value (retinal mRNA; gene Beta A3/A1 crystallin (X15143)) was −1.1 and the “Relative Change versus non-cauterized eyes, cauterized + betaxolol B” value (retinal mRNA; gene Clone RKIAS43 (AA892520)) was 2.9. For the same molecule, the “Relative Change versus non-cauterized eyes, cauterized + betaxolol B” value (retinal mRNA; gene Crybb2 (X83671)) was −1.0, the “Relative Change versus non-cauterized eyes, cauterized + betaxolol B” value (retinal mRNA; gene Cyclic nucleotide-gated cation channel (AJ000515)) was 3.4 and the “Relative Change versus non-cauterized eyes, cauterized + betaxolol B” value (retinal mRNA; gene Gial fibrillary acidic protein (AF028784)) was 1.4. For the same molecule, the “Relative Change versus non-cauterized eyes, cauterized + betaxolol B” value (retinal mRNA; gene Gzα (U77483)) was 1.1, the “Relative Change versus non-cauterized eyes, cauterized + betaxolol B” value (retinal mRNA; gene Helicase RAP 30 (L01267)) was 1.2 and the “Relative Change versus non-cauterized eyes, cauterized + betaxolol B” value (retinal mRNA; gene PSD-95/SAP90-asociated protein-4 (U67140)) was −1.0. For the same molecule, the “Relative Change versus non-cauterized eyes, cauterized + betaxolol B” value (retinal mRNA; gene Protein phosphatase 1 gamma (S78217)) was 2.5, the “Relative Change versus non-cauterized eyes, cauterized + betaxolol B” value (retinal mRNA; gene RBCK (AB011369)) was 1.3 and the “Relative Change versus non-cauterized eyes, cauterized + betaxolol B” value (retinal mRNA; gene Ras-related p23 (X12535)) was 1.1. The “Relative Change versus non-cauterized eyes, cauterized + betaxolol B” value (retinal mRNA; gene Reggie1-1 (AF023302)) was 1.8, the “Relative Change versus non-cauterized eyes, cauterized + betaxolol B” value (retinal mRNA; gene Ribosomal protein L23-related product (U62635)) was 3.8 and the “Relative Change versus non-cauterized eyes, cauterized + betaxolol B” value (retinal mRNA; gene S-adenosylmethionine synthase (J05571)) was 1.1. The “Relative Change versus non-cauterized eyes, cauterized + betaxolol B” value (retinal mRNA; gene SPARC (U75928)) was 1.9, the “Relative Change versus non-cauterized eyes, cauterized + betaxolol B” value (retinal mRNA; gene cDNA clone rx00382 (AI639155)) was 7.2 and the “Relative Change versus non-cauterized eyes, cauterized + betaxolol B” value (retinal mRNA; gene cDNA clone rx01295 (AI639375)) was 4.8. For the same molecule, the “Relative Change versus non-cauterized eyes, cauterized + betaxolol B” value (retinal mRNA; gene cDNA clone rx05013 (AI639441)) was 2.8, the “Relative Change versus non-cauterized eyes, cauterized + betaxolol B” value (retinal mRNA; gene α2 macroglobulin (M23566)) was 5.6 and the “IOP of normal eyes” value (rat eyes) was “no significant effect on normal IOP”. For the same molecule, the “IOP of cauterized (high IOP) eyes” value (rat eyes) was “full normalization of IOP after 3 days”, the “IOP of cauterized (high IOP) eyes” value (rat eyes; listed as Betaxolol) was “fully normalized high IOP from day 7 onward” and the “IOP of normal eyes” value (rat eyes; listed as Betaxolol) was “no significant effect”.
